Values joined by “and” are separate entries in the source; they are usually repeats but may differ in a detail not shown here. Identical values can stand only once. Active and inactive are the calls of the source.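 How the source made its calls: active means compounds giving half or more protection of infected cells from virus-caused growth loss, again on retest; inactive means the rest.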

The assay deals with CEM cells HIV-1 protection, formazan growth assay. Briefly: NCI AIDS Antiviral Assay. The conditions noted are these: for IC50: measured here: growth of uninfected CEM cells. The method in brief: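 Human CEM cells, uninfected and HIV-1-infected, exposed to five drug concentrations; growth measured by soluble formazan assay and scored as percent protection from infection, with protecting compounds retested.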

One may read the EC50 as the concentration giving half of the maximal effect. What is called IC50 is the concentration that inhibits the measured activity by half. A lower IC50 goes with higher potency. Take `O=S(=O)(O)OCC1OC2OC3C(COS(=O)(=O)O)OC(OC4C(COS(=O)(=O)O)OC(OC5C(COS(=O)(=O)O)OC(OC6C(COS(=O)(=O)O)OC(OC7C(COS(=O)(=O)O)OC(OC8C(COS(=O)(=O)O)OC(OC1C(OS(=O)(=O)O)C2OS(=O)(=O)O)C(OS(=O)(=O)O)C8OS(=O)(=O)O)C(OS(=O)(=O)O)C7OS(=O)(=O)O)C(OS(=O)(=O)O)C6OS(=O)(=O)O)C(OS(=O)(=O)O)C5OS(=O)(=O)O)C(OS(=O)(=O)O)C4OS(=O)(=O)O)C(OS(=O)(=O)O)C3OS(=O)(=O)O` (stereo not drawn): the EC50 was 21.4 µM and > 50.1 µM; the concentration for half-maximal inhibition (IC50) was 75.9 µM and > 50.1 µM.

For `CSc1nc(NC2OC(COC(C)=O)C(OC(C)=O)C(OC(C)=O)C2OC(C)=O)c(-c2csc(N)n2)c(=O)n1C` (stereo not drawn), the outcome was inactive.

Turning to `O=C(Nc1ccc(Cl)c(Cl)c1)OCCN1c2ccccc2Sc2ccccc21`, the EC50 was above 200 µM and the IC50 turned out to be 38 µM.

For the molecule `CCCCCCCCSC(=O)NCCCC`, the outcome was inactive.

For `COc1cccc(/C=C2\S/C(=N/Nc3nc(C)c(C)s3)NC2=O)c1O`, the EC50 was above 200 µM and the half-inhibitory concentration (IC50) came out at 129 µM.

As for `Oc1[nH]c2ccccc2c1N=NC1=NCCCCN1`, the EC50 was above 200 µM and the IC50 is above 200 µM.

With `ClC1=C(Cc2ccccc2)Cc2ccc3c(c21)CCC3`, the EC50 was above 200 µM and the half-inhibitory concentration (IC50) was above 200 µM.

Take `C[S+](C)(=O)CCCS(=O)(=O)[O-]`: the EC50 was above 200 µM and the IC50 was above 200 µM.

Turning to `CCOP(=O)(OCC)/C(C#N)=C\c1cccc2ccccc12`, the EC50 is above 83.2 µM and the IC50 is above 83.2 µM.

In the case of `CCOC(=O)c1oc2ccc(OC)c3c2c1CCC3`, the outcome was inactive.

Consider `CCOC(=O)c1nnc2sc(-c3ccccc3)nn12`, for which the EC50 was 58.9 µM and the concentration for half-maximal inhibition (IC50) was determined as 191 µM.

Consider `O=C(CC1(O)C(=O)Nc2ccccc21)c1ccc(Cl)c(Cl)c1` (stereo not drawn), for which the outcome was inactive.

Turning to `BrC/C=C/C[P+](c1ccccc1)(c1ccccc1)c1ccccc1`, the EC50 was above 5.25 µM and the IC50 came out at 0.603 µM.

`O=C(Nc1ccc(/C=C\c2ccc(NC(=O)c3cc(S(=O)(=O)O)c4cccnc4c3O)cc2S(=O)(=O)O)c(S(=O)(=O)O)c1)c1cc(S(=O)(=O)O)c2cccnc2c1O`: the EC50 is above 100 µM and the IC50 was above 100 µM.

Regarding `CC(C)C(NC(=O)C(Cc1ccccc1)NC(=O)[C@H]1CCC[C@H]1NC(=O)C(Cc1ccc(OC(C)(C)C)cc1)NC(=O)OC(C)(C)C)C(N)=O` (stereo partly drawn), the EC50 is above 200 µM and the IC50 is 29.5 µM.

Consider `CCc1nc(N)nc(C(=O)NCCNC(=O)c2nc(N)nc(CC)c2C)c1C`, for which the EC50 was above 67.6 µM and the IC50 was above 67.6 µM.

Take `COC(=O)CC(=O)OSc1ccccc1`: the EC50 is above 251 µM and the 50% inhibitory concentration (IC50) came out at 18.2 µM.

For the molecule `COc1c2occc2c([N+](=O)[O-])c2ccc(=O)oc12`, the EC50 is above 30.9 µM and the half-inhibitory concentration (IC50) stood at 26.3 µM.

With `CC(O)(P(=O)(O)O)P(=O)(O)O.[NH-]CC[NH-].[NH-]CC[NH-].[Pd+2].[Pd+2]`, the EC50 was above 200 µM and the IC50 was 87.1 µM.

Take `c1ccc([B-]2([C+]3CCCCC3)N3CCCCC3C3CCCCN32)cc1` (stereo not drawn): the EC50 was above 200 µM and the 50% inhibitory concentration (IC50) is 8.32 µM.

Take `O=c1c2ccccc2nc(-c2ccccc2)n1-c1nccs1`: the EC50 is above 200 µM and the 50% inhibitory concentration (IC50) was found to be 22.4 µM.

In the case of `CC(C)CC(NC(=O)c1cccc(O)c1O)C(=O)NCc1cc(CNC(=O)C(CC(C)C)NC(=O)c2cccc(O)c2O)cc(CNC(=O)C(CC(C)C)NC(=O)c2cccc(O)c2O)c1` (stereo not drawn), the result was inactive.

With `CCCCCCCCCCCCNC(=S)OCCCC`, the outcome was inactive.

In the case of `Oc1cc2cc(-c3ccccc3)[nH]c2c2ccccc12`, the EC50 was above 200 µM and the IC50 was 31.6 µM.

Consider `O=S(=O)([O-])[O-].O=c1[nH]cnc2nc[n-]c12.[OH3+].[OH3+].[Zn+2]`, for which the EC50 is above 21.4 µM and the IC50 was above 21.4 µM.

`CC(C)c1c(O[Si](C(C)C)(C(C)C)C(C)C)cc2c(c1O)CC[C@H]1C(C)(C)CCC[C@]21C`: the EC50 is above 200 µM and the IC50 came out at 26.9 µM.

For `Cc1cc(C(O)(c2cc(C)c(O)c(C(=O)O)c2)c2cc(C)c(O)c(C(=O)O)c2)cc(C(=O)O)c1O`, the EC50 was above 3.72 µM and the IC50 was above 3.72 µM.

As for `Brc1ccc(N=NN2CCCC2)cc1`, the EC50 is above 200 µM and the half-maximal inhibitory concentration (IC50) was found to be 38.9 µM.

Consider `CN(C)C1C(=O)C(C(=O)NCNCCCO)=C(O)C2(O)C(=O)C3=C(O)c4c(O)cccc4C(C)(O)C3CC12` (stereo not drawn), for which the EC50 is above 204 µM and the IC50 was above 100 µM.

As for `O=C(O)c1nn(-c2ccccc2-c2n[nH]c(=O)[nH]c2=O)c(=O)[nH]c1=O`, the EC50 is above 200 µM and the IC50 was above 200 µM.

Regarding `Cc1cc(S(=O)(=O)Nc2n[nH]c(Nc3ccc4ccccc4c3)n2)c(S)cc1Cl`, the EC50 was above 200 µM and the IC50 worked out at 49 µM.

For `CC(C)(C)C(=O)Oc1ccc(/C=C/C(=O)c2ccc(OC(=O)C(C)(C)C)cc2)cc1`, the EC50 was above 200 µM and the IC50 stood at 38 µM.

On to `CC1NC(=O)C(C)C(c2ccccc2)N(N=O)C1c1ccccc1` (stereo not drawn), for which the EC50 is above 209 µM and the half-maximal inhibitory concentration (IC50) came out at 186 µM.

Turning to `NCCN1CCCCCc2ccccc21`, the EC50 is above 200 µM and the IC50 was determined as 123 µM.

On to `Cc1cc2c(=O)cc(-c3cccs3)oc2c(C(=O)O)c1C`, for which the result was inactive.

For the molecule `CCOC(=O)/C(C=Nc1c(C)n(C)n(-c2ccccc2)c1=O)=C(/C)O`, the EC50 was above 200 µM and the IC50 is above 200 µM.

As for `C/C=N\N1C(=O)c2ccccc2C1=O`, the EC50 was above 191 µM and the IC50 is above 191 µM.

With `FC(F)(Sc1nc2ccccc2[nH]1)c1nc2ccccc2o1`, the EC50 is above 200 µM and the IC50 was above 200 µM.

`COc1ccc(/C=C(\C(=C/c2ccc(OC)cc2)[N+](=O)[O-])[N+](=O)[O-])cc1`: the EC50 was above 200 µM and the IC50 is 4.57 µM.

Regarding `Clc1ccc(-c2cc(-c3cc(-c4ccc(Cl)cc4)n[nH]3)[nH]n2)cc1`, the EC50 is above 200 µM and the IC50 was above 200 µM.

For the molecule `c1ccc(C2NC(c3ccccc3)N3C(c4ccccc4)N23)cc1` (stereo not drawn), the EC50 is above 16.6 µM and the IC50 is above 16.6 µM.

As to `NC(CSS(=O)(=O)O)=NCC12CC3CC(CC(C3)C1)C2`, the EC50 is above 200 µM and the IC50 was found to be 32.4 µM.

On to `CCOC(=O)C(NCc1cccc(C(F)(F)F)c1)(NC(=O)CC)C(F)(F)F` (stereo not drawn), for which the EC50 is above 200 µM and the half-inhibitory concentration (IC50) is above 100 µM.

For the molecule `COC(=O)C1(C(=O)OC)CC2=C(S(=O)(=O)c3ccccc3)C[C@@H](C#N)[C@H]2C1`, the EC50 is above 200 µM and the IC50 worked out at 110 µM.

As for `O=c1[nH]c(=O)n(CCOc2ccccc2)cc1Nc1ccccc1`, the EC50 was above 200 µM and the IC50 was above 200 µM.

With `CCN1C[C@]2(C)CCC(OC)C34[C@@H]1[C@@]1(OCO[C@@]15C[C@H](OC)[C@@H]1C[C@]3(O)[C@@H]5C1OC(C)=O)[C@@H](OC(C)=O)[C@@H]42` (stereo partly drawn), the result was inactive.

Consider `Cc1ccc(/C=N/Nc2cc(C)c3cccc(C)c3n2)s1`, for which the EC50 was above 200 µM and the 50% inhibitory concentration (IC50) was found to be 5.75 µM.

`Cn1ccnc1CCc1ccc(Cl)cc1Cl`: the EC50 is above 708 µM and the IC50 came to 70.8 µM.

These data come from PubChem BioAssay AID179 (DTP/NCI, 2004).
